Assay results reported in paper PMC9025560, “A Comparison of Evans Blue and 4-(p-Iodophenyl)butyryl Albumin Binding Moieties on an Integrin αvβ6 Binding Peptide” (Pharmaceutics, 2022).
Where two headings read alike, the source gives them in different places.

Key:
[1] = tested on: human serum protein; test: Human serum protein binding by ultrafiltration; assay type: in vitro ADME
Protocol: (§1) Serum protein binding of [^64Cu]1 and [^64Cu]2 was assessed following the previously reported method. Peptides [^64Cu]1 and [^64Cu]2 were evaluated by ultrafiltration using Centrifree Ultrafiltration devices (EMD) according to the manufacturer’s recommendations. Experiments were carried out in triplicate. The Centrifree Ultrafiltration devices were pretreated with PBS containing Tween 20 (5% v/v), followed by triplicate rinses with PBS. An aliquot of each peptide [^64Cu]1 or [^64Cu]2 in PBS (≤25 μL, 20–60 KBq) was thoroughly mixed with 0.5 mL of serum at 37 °C in a microfuge tube. The mixture was incubated at 37 °C for 5 min, and an aliquot (50 μL) was transferred to a tube for γ-counting. The remaining sample was transferred to a Centrifree Ultrafiltration device and centrifuged for 40 min at 1500 (RCF) at ambient temperature (20–24 °C). An aliquot (50 μL) of the filtrate was transferred to a tube for γ-counting. For each radiolabeled peptide, a blank was run using 0.5 mL PBS/Tween 20 (5% v/v) instead of serum (n = 3) to determine non-specific binding. Following γ-counting, the protein-bound radioactivity was calculated by subtracting the counts measured in the filtrate aliquot (i.e., not protein-bound) from the counts in the corresponding serum aliquot. The data are expressed as mean ± standard deviation of fraction of radioactivity bound to protein after subtraction of non-specific binding determined in the blank.

[2] = Biodistribution in mice bearing BxPC-3 xenograft tumors; assay type: in vivo; conditions: female, athymic nu/nu-nude, mouse, in vivo, total radioactivity; for tissue uptake at 4 h: 4 h p.i.; for tissue uptake at 24 h: 24 h p.i.; for tissue uptake at 48 h: 48 h p.i.
Summary of the method: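 Female athymic nu/nu mice bearing subcutaneous BxPC-3 (integrin αvβ6-positive) flank tumors 0.5–1 cm, given [^64Cu]-labelled peptides (3.7–5.55 MBq) i.v. via tail vein. Tissues taken at 4, 24, 48 and 72 h p.i. and γ-counted; decay-corrected uptake reported as % ID/g, mean ± SD.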

[3] = tested on: mouse serum protein; test: Mouse serum protein binding by ultrafiltration; assay type: in vitro ADME; conditions: 37 °C
Protocol: as §1, with “For each radiolabeled peptide, a blank was run using 0.5 mL PBS/Tween 20 (5% v/v) instead of serum (n = 3) to determine non-specific binding.” left out

[4] = Stability in human serum at 37 °C; assay type: in vitro ADME; conditions: read-out: Stability in human serum, % intact
Protocol: For serum stability, mouse serum or human serum (0.5 mL, both purchased from Sigma-Aldrich) was combined with an aliquot of each of the peptides [^64Cu]1 and [^64Cu]2 (≤25 μL, 14.8–22.2 MBq) and incubated at 37 °C. At each time point (1, 4, and 24 h) an aliquot (50–200 μL) was taken, proteins precipitated with ethanol, and removed by pelleting at 1500 (RCF) for 4 min. The ethanol solution was diluted with water (1 mL) and analyzed by RP-HPLC as previously described.

[5] = iv, i.v., read-out: Blood uptake
[6] = iv, i.v., read-out: Bone uptake
[7] = iv, i.v., read-out: Brain uptake
[8] = iv, i.v., read-out: BxPC-3 Tumor uptake
[9] = iv, i.v., read-out: Fecal Matter radioactivity
[10] = iv, i.v., read-out: Gall Bladder uptake
[11] = iv, i.v., read-out: Heart uptake
[12] = iv, i.v., read-out: Kidneys uptake
[13] = iv, i.v., read-out: Lg. Intestines uptake
[14] = iv, i.v., read-out: Liver uptake
[15] = iv, i.v., read-out: Lung uptake
[16] = iv, i.v., read-out: Muscle uptake
[17] = iv, i.v., read-out: Pancreas uptake
[18] = iv, i.v., read-out: Skin uptake
[19] = iv, i.v., read-out: Sm. Intestines uptake
[20] = iv, i.v., read-out: Spleen uptake
[21] = iv, i.v., read-out: Stomach uptake
[22] = iv, i.v., read-out: Urine radioactivity

CC(C)C[C@H](NC(=O)[C@H](CC(=O)O)NC(=O)CNC(=O)[C@H](CCCNC(=N)N)NC(=O)[C@H](CC(C)C)NC(=O)[C@H](CC(N)=O)NC(=O)[C@@H]1CCCN1C(=O)[C@@H](NC(=O)[C@H](C)NC(=O)[C@H](CC(N)=O)NC(=O)CCOCCOCCOCCOCCOCCOCCOCCOCCOCCOCCOCCOCCOCCOCCOCCOCCOCCOCCOCCOCCOCCOCCOCCOCCOCCOCCOCCOCCNC(=O)[C@H](CCCCNC(=O)[C@H](CC(=O)O)NC(=O)CCCNC(=O)CCCc1ccc(I)cc1)NC(=O)CN1CCN(CC(=O)O)CCN(CC(=O)O)CCN(CC(=O)O)CC1)C(C)C)C(=O)N[C@@H](CCC(N)=O)C(=O)N[C@H](C(=O)N[C@@H](CC(C)C)C(=O)N[C@@H](C)C(=O)N[C@@H](CCC(N)=O)C(=O)N[C@@H](CCCNC(=N)N)C(=O)N[C@H](C(=O)N[C@@H](C)C(=O)N[C@@H](CCCNC(=N)N)C(=O)N[C@H](C(=O)NCCOCCOCCOCCOCCOCCOCCOCCOCCOCCOCCOCCOCCOCCOCCOCCOCCOCCOCCOCCOCCOCCOCCOCCOCCOCCOCCOCCOCCC(N)=O)[C@@H](C)O)C(C)C)C(C)C [[^64Cu]2, [^64Cu]Cu DOTA-IP-αvβ6-BP, metal not drawn]
Binding to human serum protein ([1]; 37 °C, ultrafiltration): 63.3 ± 1.5% | Serum albumin binding ([1]; abstract, serum species not stated): 42–44% | tissue uptake at 4 h [2, 5]: 1.21 ± 0.16 %ID/g | tissue uptake at 4 h [2, 6]: 0.59 ± 0.15 %ID/g | tissue uptake at 4 h [2, 7]: 0.12 ± 0.002 %ID/g | tissue uptake at 4 h [2, 8]: 7.6 ± 0.43 %ID/g | tissue uptake at 4 h [2, 9]: 9.32 ± 1.08 %ID/g | tissue uptake at 4 h [2, 10]: 4.33 ± 2.64 %ID/g | tissue uptake at 4 h [2, 11]: 2.22 ± 0.11 %ID/g | tissue uptake at 4 h [2, 12]: 33.6 ± 5.39 %ID/g | tissue uptake at 4 h [2, 13]: 9.83 ± 0.69 %ID/g | tissue uptake at 4 h [2, 14]: 1.58 ± 0.26 %ID/g | tissue uptake at 4 h [2, 15]: 2.25 ± 0.39 %ID/g | tissue uptake at 4 h [2, 16]: 0.99 ± 0.3 %ID/g | tissue uptake at 4 h [2, 17]: 1.04 ± 0.09 %ID/g | tissue uptake at 4 h [2, 18]: 2.72 ± 0.31 %ID/g | tissue uptake at 4 h [2, 19]: 9.55 ± 1.21 %ID/g | tissue uptake at 4 h [2, 20]: 0.41 ± 0.13 %ID/g | tissue uptake at 4 h [2, 21]: 18.1 ± 2.91 %ID/g | tissue uptake at 4 h [2, 22]: 25.1 ± 6.79 %ID/g | tissue uptake at 24 h [2, 5]: 0.2 ± 0.04 %ID/g | tissue uptake at 24 h [2, 6]: 0.28 ± 0.21 %ID/g | tissue uptake at 24 h [2, 7]: 0.08 ± 0.01 %ID/g | tissue uptake at 24 h [2, 8]: 4.41 ± 1.25 %ID/g | tissue uptake at 24 h [2, 9]: 4.58 ± 1.03 %ID/g | tissue uptake at 24 h [2, 10]: 5.05 ± 3.56 %ID/g | tissue uptake at 24 h [2, 11]: 1.61 ± 0.06 %ID/g | tissue uptake at 24 h [2, 12]: 21.9 ± 1.74 %ID/g | tissue uptake at 24 h [2, 13]: 5.58 ± 0.94 %ID/g | tissue uptake at 24 h [2, 14]: 1.62 ± 0.2 %ID/g | tissue uptake at 24 h [2, 15]: 1.69 ± 0.07 %ID/g | tissue uptake at 24 h [2, 16]: 0.78 ± 0.22 %ID/g | tissue uptake at 24 h [2, 17]: 0.78 ± 0.01 %ID/g | tissue uptake at 24 h [2, 18]: 1.48 ± 0.03 %ID/g | tissue uptake at 24 h [2, 19]: 4.58 ± 0.62 %ID/g | tissue uptake at 24 h [2, 20]: 0.31 ± 0.05 %ID/g | tissue uptake at 24 h [2, 21]: 11.1 ± 1.16 %ID/g | tissue uptake at 24 h [2, 22]: 1.7 ± 1.91 %ID/g | tissue uptake at 48 h [2, 5]: 0.2 ± 0.04 %ID/g | tissue uptake at 48 h [2, 6]: 0.24 ± 0.09 %ID/g | tissue uptake at 48 h [2, 7]: 0.09 ± 0.01 %ID/g | tissue uptake at 48 h [2, 8]: 4.09 ± 1.28 %ID/g | tissue uptake at 48 h [2, 9]: 2.67 ± 0.58 %ID/g | tissue uptake at 48 h [2, 10]: 2.83 ± 0.86 %ID/g | tissue uptake at 48 h [2, 11]: 1.43 ± 0.2 %ID/g | tissue uptake at 48 h [2, 12]: 11.8 ± 1.02 %ID/g | tissue uptake at 48 h [2, 13]: 3.95 ± 0.81 %ID/g | tissue uptake at 48 h [2, 14]: 1.71 ± 0.21 %ID/g | tissue uptake at 48 h [2, 15]: 1.33 ± 0.15 %ID/g | tissue uptake at 48 h [2, 16]: 0.63 ± 0.07 %ID/g | tissue uptake at 48 h [2, 17]: 0.64 ± 0.08 %ID/g | tissue uptake at 48 h [2, 18]: 1.22 ± 0.22 %ID/g | tissue uptake at 48 h [2, 19]: 2.28 ± 0.1 %ID/g | tissue uptake at 48 h [2, 20]: 0.35 ± 0.05 %ID/g | tissue uptake at 48 h [2, 21]: 6.4 ± 1.02 %ID/g | tissue uptake at 48 h [2, 22]: 3.24 ± 1.03 %ID/g | tissue uptake at 72 h ([2]; iv, 72 h p.i., i.v., read-out: Blood uptake): 0.17 ± 0.001 %ID/g | tissue uptake at 72 h ([2]; iv, 72 h p.i., i.v., read-out: Bone uptake): 0.26 ± 0.01 %ID/g | tissue uptake at 72 h ([2]; iv, 72 h p.i., i.v., read-out: Brain uptake): 0.1 ± 0.02 %ID/g | tissue uptake at 72 h ([2]; iv, 72 h p.i., i.v., read-out: BxPC-3 Tumor uptake): 4.91 ± 1.19 %ID/g | tissue uptake at 72 h ([2]; iv, 72 h p.i., i.v., read-out: Fecal Matter radioactivity): 2.29 ± 0.53 %ID/g | tissue uptake at 72 h ([2]; iv, 72 h p.i., i.v., read-out: Gall Bladder uptake): 3.21 ± 1.02 %ID/g | tissue uptake at 72 h ([2]; iv, 72 h p.i., i.v., read-out: Heart uptake): 1.05 ± 0.05 %ID/g | tissue uptake at 72 h ([2]; iv, 72 h p.i., i.v., read-out: Kidneys uptake): 11.5 ± 1.02 %ID/g | tissue uptake at 72 h ([2]; iv, 72 h p.i., i.v., read-out: Lg. Intestines uptake): 3 ± 0.37 %ID/g | tissue uptake at 72 h ([2]; iv, 72 h p.i., i.v., read-out: Liver uptake): 1.3 ± 0.13 %ID/g | tissue uptake at 72 h ([2]; iv, 72 h p.i., i.v., read-out: Lung uptake): 1.16 ± 0.22 %ID/g | tissue uptake at 72 h ([2]; iv, 72 h p.i., i.v., read-out: Muscle uptake): 0.76 ± 0.24 %ID/g | tissue uptake at 72 h ([2]; iv, 72 h p.i., i.v., read-out: Pancreas uptake): 0.57 ± 0.06 %ID/g | tissue uptake at 72 h ([2]; iv, 72 h p.i., i.v., read-out: Skin uptake): 0.92 ± 0.14 %ID/g | tissue uptake at 72 h ([2]; iv, 72 h p.i., i.v., read-out: Sm. Intestines uptake): 1.24 ± 0.11 %ID/g | tissue uptake at 72 h ([2]; iv, 72 h p.i., i.v., read-out: Spleen uptake): 0.38 ± 0.14 %ID/g | tissue uptake at 72 h ([2]; iv, 72 h p.i., i.v., read-out: Stomach uptake): 3.14 ± 0.62 %ID/g | tissue uptake at 72 h ([2]; iv, 72 h p.i., i.v., read-out: Urine radioactivity): 1.46 ± 1.17 %ID/g | tissue uptake at 72 h ([2]; 72 h, read-out: GI uptake): < 3.2 %ID/g | tissue uptake ([2]; throughout 4–72 h, read-out: Liver uptake throughout): < 3 %ID/g | Binding to mouse serum protein [3]: 44.0 ± 0.1% | remaining at 1 h ([4]; 1 h): 99% | remaining at 4 h ([4]; 4 h): 93% | remaining at 24 h ([4]; 24 h): 90%
